Assays:
Type in all cases: functional
KM12 [1] = assay: Cytotoxicity against human KM12 cells assessed as cell growth at 0.1 uM after 48 hrs by sulforhodamine B assay relative to control; details: KM12, 48 h, read-out: Activity
SK-OV-3 = assay: Cytotoxicity against human SKOV3 cells assessed as growth inhibition after 48 hrs by sulforhodamine B assay; details: SK-OV-3, 48 h
Hs-578T = assay: Cytotoxicity against human Hs 578T cells assessed as cell growth at 1 uM after 48 hrs by sulforhodamine B assay relative to control; details: read-out: Activity
SW-620 [2] = assay: Cytotoxicity against human SW620 cells assessed as cell growth at 0.01 uM after 48 hrs by sulforhodamine B assay relative to control; details: SW-620, 48 h, read-out: Activity
MDA-MB-435 [3] = assay: Cytotoxicity against human MDA-MB-435 cells assessed as growth inhibition after 48 hrs by sulforhodamine B assay; details: MDA-MB-435, 48 h
T47D = assay: Cytotoxicity against human T47D cells assessed as cell growth at 1 uM after 48 hrs by sulforhodamine B assay relative to control; details: read-out: Activity
SW-620 [4] = assay: Cytotoxicity against human SW620 cells assessed as cell growth at 100 uM after 48 hrs by sulforhodamine B assay relative to control; details: SW-620, 48 h, read-out: Activity
NCI/ADR-RES [5] = assay: Cytotoxicity against human NCI/ADR-RES cells assessed as cell growth at 1 uM after 48 hrs by sulforhodamine B assay relative to control; details: read-out: Activity
SF-539 = assay: Cytotoxicity against human SF539 cells assessed as cell growth at 1 uM after 48 hrs by sulforhodamine B assay relative to control; details: SF-539, 48 h, read-out: Activity
SR [6] = assay: Cytotoxicity against human SR cells assessed as cell growth at 1 uM after 48 hrs by sulforhodamine B assay relative to control; details: read-out: Activity
ACHN = assay: Cytotoxicity against human ACHN cells assessed as cell growth at 0.1 uM after 48 hrs by sulforhodamine B assay relative to control; details: read-out: Activity
HOP-62 [7] = assay: Cytotoxicity against human HOP62 cells assessed as cell growth at 0.1 uM after 48 hrs by sulforhodamine B assay relative to control; details: HOP-62, 48 h, read-out: Activity
MCF7 [8] = assay: Cytotoxicity against human MCF7 cells assessed as cell growth at 0.1 uM after 48 hrs by sulforhodamine B assay relative to control; details: MCF7, 48 h, read-out: Activity
OVCAR-8 [9] = assay: Cytotoxicity against human OVCAR8 cells assessed as cell growth at 1 uM after 48 hrs by sulforhodamine B assay relative to control; details: OVCAR-8, 48 h, read-out: Activity
HL-60(TB) = assay: Cytotoxicity against human HL-60(TB) cells assessed as cell growth at 0.01 uM after 48 hrs by sulforhodamine B assay relative to control; details: HL-60, 48 h, read-out: Activity
MDA-MB-435 [10] = assay: Cytotoxicity against human MDA-MB-435 cells assessed as cell growth at 100 uM after 48 hrs by sulforhodamine B assay relative to control; details: MDA-MB-435, 48 h, read-out: Activity
A498 = assay: Cytotoxicity against human A498 cells assessed as growth inhibition after 48 hrs by sulforhodamine B assay; details: A498, 48 h
MDA-MB-435 [11] = assay: Cytotoxicity against human MDA-MB-435 cells assessed as cell growth at 10 uM after 48 hrs by sulforhodamine B assay relative to control; details: MDA-MB-435, 48 h, read-out: Activity
KM12 [12] = assay: Cytotoxicity against human KM12 cells assessed as cell growth at 1 uM after 48 hrs by sulforhodamine B assay relative to control; details: KM12, 48 h, read-out: Activity
OVCAR-8 [13] = assay: Cytotoxicity against human OVCAR8 cells assessed as cell growth at 0.01 uM after 48 hrs by sulforhodamine B assay relative to control; details: OVCAR-8, 48 h, read-out: Activity
K562 = assay: Cytotoxicity against human K562 cells assessed as growth inhibition after 48 hrs by sulforhodamine B assay; details: K562, 48 h
SN12C = assay: Cytotoxicity against human SN12C cells assessed as cell growth at 1 uM after 48 hrs by sulforhodamine B assay relative to control; details: read-out: Activity
NCI-H226 = assay: Cytotoxicity against human NCI-H226 cells assessed as cell growth at 0.01 uM after 48 hrs by sulforhodamine B assay relative to control; details: NCI-H226, 48 h, read-out: Activity
CCRF-CEM = assay: Cytotoxicity against human CCRF-CEM cells assessed as cell growth at 0.1 uM after 48 hrs by sulforhodamine B assay relative to control; details: read-out: Activity
IGROV-1 [14] = assay: Cytotoxicity against human IGROV1 cells assessed as cell growth at 10 uM after 48 hrs by sulforhodamine B assay relative to control; details: IGROV-1, 48 h, read-out: Activity
PC-3 = assay: Cytotoxicity against human PC3 cells assessed as growth inhibition after 48 hrs by sulforhodamine B assay; details: PC-3, 48 h
HOP-62 [15] = assay: Cytotoxicity against human HOP62 cells assessed as cell growth at 10 uM after 48 hrs by sulforhodamine B assay relative to control; details: HOP-62, 48 h, read-out: Activity
MCF7 [16] = assay: Cytotoxicity against human MCF7 cells assessed as cell growth at 0.01 uM after 48 hrs by sulforhodamine B assay relative to control; details: MCF7, 48 h, read-out: Activity
MOLT-4 = assay: Cytotoxicity against human MOLT4 cells assessed as cell growth at 10 uM after 48 hrs by sulforhodamine B assay relative to control; details: MOLT-4, 48 h, read-out: Activity
NCI/ADR-RES [17] = assay: Cytotoxicity against human NCI/ADR-RES cells assessed as growth inhibition after 48 hrs by sulforhodamine B assay
IGROV-1 [18] = assay: Cytotoxicity against human IGROV1 cells assessed as growth inhibition after 48 hrs by sulforhodamine B assay; details: IGROV-1, 48 h
NCI-H460 = assay: Cytotoxicity against human NCI-H460 cells assessed as cell growth at 10 uM after 48 hrs by sulforhodamine B assay relative to control; details: NCI-H460, 48 h, read-out: Activity
SR [19] = assay: Cytotoxicity against human SR cells assessed as cell growth at 100 uM after 48 hrs by sulforhodamine B assay relative to control; details: read-out: Activity
OVCAR-3 = assay: Cytotoxicity against human OVCAR3 cells assessed as cell growth at 0.1 uM after 48 hrs by sulforhodamine B assay relative to control; details: OVCAR-3, 48 h, read-out: Activity
Malme-3M = assay: Cytotoxicity against human MALME-3M cells assessed as cell growth at 0.1 uM after 48 hrs by sulforhodamine B assay relative to control; details: read-out: Activity
OVCAR-5 = assay: Cytotoxicity against human OVCAR5 cells assessed as growth inhibition after 48 hrs by sulforhodamine B assay; details: OVCAR-5, 48 h
COLO 205 = assay: Cytotoxicity against human COLO205 cells assessed as growth inhibition after 48 hrs by sulforhodamine B assay; details: COLO 205, 48 h

## COc1cc2c(cc1OC)C(=O)/C(=C/c1cc(-c3ccc4c(c3)OCO4)n[nH]1)C2
KM12 [1]
  growth at 0.1 µM: 99%
SK-OV-3
  GI50: 2.89 µM
  LC50: 25.2 µM
  TGI: 7.16 µM
Hs-578T
  growth at 1 µM: 92%
SW-620 [2]
  growth at 0.01 µM: 98%
MDA-MB-435 [3]
  GI50: 1.73 µM
  LC50: 6.18 µM
  TGI: 3.27 µM
T47D
  growth at 1 µM: 69%
SW-620 [4]
  growth at 100 µM: -71%
NCI/ADR-RES [5]
  growth at 1 µM: 86%
SF-539
  growth at 1 µM: 67%
SR [6]
  growth at 1 µM: 38%
ACHN
  growth at 0.1 µM: 100%
HOP-62 [7]
  growth at 0.1 µM: 100%
MCF7 [8]
  growth at 0.1 µM: 89%
OVCAR-8 [9]
  growth at 1 µM: 84%
HL-60(TB)
  growth at 0.01 µM: 90%
MDA-MB-435 [10]
  growth at 100 µM: -95%
A498
  GI50: 1.33 µM
  LC50: 6 µM
  TGI: 2.83 µM
MDA-MB-435 [11]
  growth at 10 µM: -88%
KM12 [12]
  growth at 1 µM: 67%
OVCAR-8 [13]
  growth at 0.01 µM: 98%
K562
  GI50: 1.59 µM
  LC50 (concentration killing 50% of cells): > 100 µM
  TGI: > 100 µM
SN12C
  growth at 1 µM: 87%
NCI-H226
  growth at 0.01 µM: 97%
CCRF-CEM
  growth at 0.1 µM: 96%
IGROV-1 [14]
  growth at 10 µM: -44%
PC-3
  GI50: 1.29 µM
  LC50: 6.6 µM
  TGI: 2.92 µM
HOP-62 [15]
  growth at 10 µM: -92%
MCF7 [16]
  growth at 0.01 µM: 96%
MOLT-4
  growth at 10 µM: -18%
NCI/ADR-RES [17]
  GI50: 2.25 µM
  LC50: > 100 µM
  TGI: 6.87 µM
IGROV-1 [18]
  GI50: 1.89 µM
  LC50: 14.3 µM
  TGI: 4.58 µM
NCI-H460
  growth at 10 µM: -59%
SR [19]
  growth at 100 µM: -22%
OVCAR-3
  growth at 0.1 µM: 101%
Malme-3M
  growth at 0.1 µM: 84%
OVCAR-5
  GI50: 1.56 µM
  LC50: 5.79 µM
  TGI: 3 µM
COLO 205
  GI50: 1.7 µM
  LC50: 5.68 µM
  TGI: 3.11 µM

## COc1ccc(C(=O)/C=C/c2cc(-c3cc(OC)c(OC)c(OC)c3)n[nH]2)cc1OC
KM12 [1]
  growth at 0.1 µM: 92%
SK-OV-3
  LC50: 27.6 µM
  TGI: 7.82 µM
Hs-578T
  growth at 1 µM: 91%
SW-620 [2]
  growth at 0.01 µM: 101%
MDA-MB-435 [3]
  LC50: 5.52 µM
  TGI: 2.71 µM
T47D
  growth at 1 µM: 75%
SW-620 [4]
  growth at 100 µM: -67%
NCI/ADR-RES [5]
  growth at 1 µM: 90%
SF-539
  growth at 1 µM: 67%
SR [6]
  growth at 1 µM: 11%
ACHN
  growth at 0.1 µM: 97%
HOP-62 [7]
  growth at 0.1 µM: 100%
MCF7 [8]
  growth at 0.1 µM: 91%
OVCAR-8 [9]
  growth at 1 µM: 69%
HL-60(TB)
  growth at 0.01 µM: 103%
MDA-MB-435 [10]
  growth at 100 µM: -73%
A498
  LC50: 6 µM
  TGI: 2.98 µM
MDA-MB-435 [11]
  growth at 10 µM: -92%
KM12 [12]
  growth at 1 µM: 54%
OVCAR-8 [13]
  growth at 0.01 µM: 97%
K562
  LC50 (concentration killing 50% of cells): > 100 µM
  TGI: 7.12 µM
SN12C
  growth at 1 µM: 80%
NCI-H226
  growth at 0.01 µM: 98%
CCRF-CEM
  growth at 0.1 µM: 94%
IGROV-1 [14]
  growth at 10 µM: -84%
PC-3
  LC50: 5.76 µM
  TGI: 2.8 µM
HOP-62 [15]
  growth at 10 µM: -97%
MCF7 [16]
  growth at 0.01 µM: 89%
MOLT-4
  growth at 10 µM: -30%
NCI/ADR-RES [17]
  LC50: > 100 µM
  TGI: 15.7 µM
IGROV-1 [18]
  LC50: 6.48 µM
  TGI: 3.41 µM
NCI-H460
  growth at 10 µM: -64%
SR [19]
  growth at 100 µM: 3%
OVCAR-3
  growth at 0.1 µM: 100%
Malme-3M
  growth at 0.1 µM: 92%
OVCAR-5
  LC50: 5.75 µM
  TGI: 3.03 µM
COLO 205
  LC50: 5.92 µM
  TGI: 3.21 µM

## COc1cc(-c2cc(/C=C/C(=O)c3ccc4c(c3)OCO4)[nH]n2)cc(OC)c1OC
KM12 [1]
  growth at 0.1 µM: 95%
SK-OV-3
  LC50: > 100 µM
  TGI: 26.1 µM
Hs-578T
  growth at 1 µM: 94%
SW-620 [2]
  growth at 0.01 µM: 99%
MDA-MB-435 [3]
  LC50: > 100 µM
T47D
  growth at 1 µM: 79%
SW-620 [4]
  growth at 100 µM: 1%
NCI/ADR-RES [5]
  growth at 1 µM: 96%
SF-539
  growth at 1 µM: 86%
SR [6]
  growth at 1 µM: 32%
ACHN
  growth at 0.1 µM: 109%
HOP-62 [7]
  growth at 0.1 µM: 100%
MCF7 [8]
  growth at 0.1 µM: 94%
OVCAR-8 [9]
  growth at 1 µM: 91%
HL-60(TB)
  growth at 0.01 µM: 98%
MDA-MB-435 [10]
  growth at 100 µM: 4%
A498
  LC50: > 100 µM
  TGI: 15.4 µM
MDA-MB-435 [11]
  growth at 10 µM: -15%
KM12 [12]
  growth at 1 µM: 89%
OVCAR-8 [13]
  growth at 0.01 µM: 99%
K562
  LC50 (concentration killing 50% of cells): > 100 µM
  TGI: 9.81 µM
SN12C
  growth at 1 µM: 91%
NCI-H226
  growth at 0.01 µM: 97%
CCRF-CEM
  growth at 0.1 µM: 90%
IGROV-1 [14]
  growth at 10 µM: 29%
PC-3
  LC50: > 100 µM
  TGI: 13.7 µM
HOP-62 [15]
  growth at 10 µM: -38%
MCF7 [16]
  growth at 0.01 µM: 89%
MOLT-4
  growth at 10 µM: -4%
NCI/ADR-RES [17]
  LC50: > 100 µM
  TGI: > 100 µM
IGROV-1 [18]
  LC50: > 100 µM
  TGI: 62.1 µM
NCI-H460
  growth at 10 µM: -38%
SR [19]
  growth at 100 µM: 2%
OVCAR-3
  growth at 0.1 µM: 101%
Malme-3M
  growth at 0.1 µM: 91%
OVCAR-5
  LC50: > 100 µM
  TGI: 93.5 µM
COLO 205
  LC50: 7.92 µM
  TGI: 3.85 µM
